Results on 1 compound are retold here after patent CN106420773A, “一种治疗放射性肠炎的中西药组合物及其制备方法和应用” (Zhengzhou Lidiya Medicine Technology Co Ltd, priority 2016, dated 2017).

A short description of the test: Clinical trial in patients receiving pelvic radiotherapy (radiation enteritis). It is filed as in vivo, human. The note with it: once daily, 10 days, with conventional radiotherapy.
Setting [1] is: number of patients of 50 per group.

The compound `CC(O)C(=O)[O-].CC(O)C(=O)[O-].[Ca+2]` (stereo not shown) [对比例2, 乳酸钙] returned a total effective rate (50 patients per group) of 4%. Under setting [1], this compound registered a cured of 0, an improved of 2 and an ineffective of 48.
